Measurements: publication PMC10411625, “Rationally designed stapled peptides allosterically inhibit PTBP1–RNA-binding” (Chemical Science, 2023)

Columns and labels:
PTBP1 RRM12-L151G = biological target: T1, PTBP1 RRM12-L151G (Homo sapiens, UniProt P26599, L151G); experiment: Competitive fluorescence polarization assay, RRM12-L151G and RNA-2; format: binding; settings: Fig. 3C; competitive FP with RNA-2; read-out: P-6 Ki, construct RRM12-L151G
T1 construct: (P57-V265); MBP (from pMAL vector); His tag; made in house; host or cells: E. coli BL21 DE3 RIL
T1 sequence (P26599 57-265 L151G): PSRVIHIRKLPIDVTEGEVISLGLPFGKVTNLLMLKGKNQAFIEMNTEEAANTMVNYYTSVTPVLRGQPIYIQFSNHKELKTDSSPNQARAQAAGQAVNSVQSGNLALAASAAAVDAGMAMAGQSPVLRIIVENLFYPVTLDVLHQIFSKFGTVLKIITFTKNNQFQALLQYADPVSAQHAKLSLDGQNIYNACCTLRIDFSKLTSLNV
From the text: (§1) Different PTBP1 variants were used to investigate the mode of action of P-6via competitive FP experiments. As illustrated in Fig. 1A there is a short linker between RRM1 and the α3-helix which also makes contacts with the RNA. It is possible that when P-6 occupies the binding site of the helix, this linker is displaced disrupting its interactions with the RNA and lowering the RNA-binding affinity. To test this, we measured whether P-6 could inhibit RRM1 RNA-binding. […] Therefore, it seems most likely that P-6 inhibits RRM12 via disturbing the coordinated RNA-binding of the two RRM domains. As this is possibly regulated by the helix we tested if the peptide could inhibit RRM12–L151G where the role of the helix is reduced (Fig. 3C and S5 ^†). […] These findings further support a mode of action where P-6 disturbs coordinated RNA-binding by RRM1 and 2. […]
(§2) size exclusion chromatography (Superdex 75 16/60 or 26/60) with SEC buffer (50 mM Tris, 200 mM NaCl). Protein homogeneity was assessed by the size exclusion chromatogram and purity was checked by SDS-PAGE analysis to be >= 90%.
(§3) The gene encoding for SRSF1-RRM12 (1-195) was subcloned into pOPIN-His expression vector and expressed in E. coli BL21 (DE3). […]
(§4) Fluorescence polarization assay with PTBP1 […]

PTBP1 RRM1 = biological target: T2, PTBP1 RRM1 (Homo sapiens, UniProt P26599); experiment: Competitive fluorescence polarization assay, RRM1 and RNA-2; format: binding; settings: Fig. 3C; competitive FP with RNA-2; read-out: P-6 Ki, construct RRM1
T2 construct: (G41-A163); His tag; made in house; host or cells: E. coli BL21 DE3 RIL
T2 sequence (P26599 41-163): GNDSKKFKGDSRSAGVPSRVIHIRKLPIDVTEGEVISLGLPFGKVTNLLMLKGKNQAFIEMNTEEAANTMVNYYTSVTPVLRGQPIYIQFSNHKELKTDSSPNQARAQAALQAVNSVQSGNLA
From the text: as §1, §2, §3, §4

`CC(=O)N[C@@H](CC(N)=O)C(=O)N[C@@H](CCC(N)=O)C(=O)N[C@@]1(C)CCCC=CCCCC2(CCCC=CCCC[C@](C)(C(=O)N[C@H](C(=O)N[C@@H](CC(N)=O)C(N)=O)C(C)C)NC(=O)[C@H](CCC(N)=O)NC(=O)[C@H](CC(C)C)NC(=O)[C@H](C)NC2=O)NC(=O)[C@H](CCC(N)=O)NC(=O)[C@H](C)NC(=O)[C@H](CCCNC(=N)N)NC1=O` (some centres unmarked) [Peptide P-6] was tested, and the Ki (PTBP1 RRM12-L151G) was > 750 µM and the Ki (PTBP1 RRM1) was > 750 µM.
